Results on 3 molecules are retold here after patent publication US7820636B2, “Sugar intake promoters” (Otsuka Pharmaceutical Co., Ltd., priority 2001, dated 2010).

The test system of this assay is human epidermal keratinocytes. The assay is described as follows: 3H-2-deoxyglucose uptake in epidermal keratinocytes. In kind it is cell-based. To be noted: for promotion effect relative to that of adenosine at the same concentration: p<0.05; for action of promoting epidermal keratinocytic glucose uptake (qualitative): FIG. 1. On the procedure: The influence of purine base on glucose uptake in epidermal keratinocytes was examined using adenosine 5′-phosphate-2Na (AMP-2Na), adenosine and inosine as test compounds. As a control, the experiment was carried out in a similar manner without using the test compound.
Human epidermal keratinocyates (normal human neonatal foreskin epidermal keratinocytes, “Epidercell NHEK(F)”, product of Kurabo industries, Ltd.) were initially cultured in a 10-cm petri dish and stored in a frozen state until use. At the time of use, the cryopreserved cells were cultured on a 24-well plate for about 6 to 7 days and subjected to this experiment when the cells were 70-80% confluent.
A glucose-free medium was prepared by adding to a serum-free medium for the growth of epidermal keratinocytes (“HuMedia-KG2”, special ordered medium, product of Kurabo Industries, Ltd.) 1 ml of calcium solution and 0.1 ml of phenol red packaged with the medium product. Bovine serum albumin (BSA) treated with activated carbon to remove impurities was added to the medium to become a concentration of 1% and the medium was adjusted to pH 7.4 with NaOH.
1 ml of 10 mM 2-deoxyglucose, 60 μl of 250 μCi/250 μl ^3H-2-deoxyglucose and 940 μl of 1% BSA/glucose-free medium (pH 7.4) were mixed.
Epidermal keratinocytes cultured in a 24-well plate were washed with PBS(−) (Ca^2+ and Mg^2+ free phosphate buffered saline) three times. After addition of serum-free medium for the growth of epidermal keratinocytes (“HuMedia-KG2”, special ordered medium, product of Kurabo Industries, Ltd.), the cells were cultured for 2 hours and then washed with PBS(−) three times. After addition of 1 ml of 1% BSA/glucose-free medium (pH 7.4) in which the test compound was dissolved, the cells were cultured for 30 minutes and then 20 μl of ^3H-2-deoxyglucose solution was added per ml of the medium. The cells were allowed to stand for 10 minutes and then washed with ice-cooled glucose-containing PBS(−) three times. After addition of 0.5 ml of 0.1N NaOH containing 0.1% SDS, the cells ware allowed to stand in a static condition for at least 2 hours to produce a cell lysate solution. 0.5 ml of 0.11N HCl containing 0.1% SDS was added to acidify the cell lysis solution. 80 μl of the cell lysate solution was used for protein assay (“DC Protein Assay”, product of Bio-Rad), and 750 μl of the same was placed into a glass bottle. 20 ml of a liquid scintillation cocktail (ACS-II, product of Amersham) was added. After gently stirring the mixture, radioactivity was assayed using the liquid scintillation counter. The radioactivity per unit amount of protein was determined from the measured radioactivity and the amount of ^3H-2-deoxyglucose uptake (H-DPM (μg)/μg protein) was calculated by subtracting the radioactivity due to non-specific 3H-2-deoxyglucose uptake.
The above experiment was carried out twice and the mean averages were calculated. For comparison with the control, each value was converted to a ratio to the control value set as 1. […] In FIG. 1, the abscissa designates the concentration (log M) of each purine base (AMP-2Na, adenosine, inosine), and the ordinate designates the ratio of cellular 2-deoxyglucose uptake amount (H-DPM (μg)/μg protein) relative to the control set as 1.

As to `Nc1ncnc2c1ncn2[C@@H]1O[C@H](COP(=O)([O-])[O-])[C@@H](O)[C@H]1O.[Na+].[Na+]` [AMP-2Na, adenosine 5′-phosphate-2Na], the “promotion of glucose uptake relative to control (ratio, control = 1)” value is, setting by setting: (10^-5 M, first experiment) “about 1.61 times”; (10^-5 M, second experiment) “about 1.43 times”; (10^-6 M, first experiment) “about 1.48 times”; (10^-6 M, second experiment) “about 1.48 times”. Further, the “promotion effect relative to that of adenosine at the same concentration” value is given as “about 1.16 times” (10^-6 M, first experiment) and “about 1.32 times” (10^-6 M, second experiment). The “glucose uptake promotion compared with inosine (qualitative)” value (low concentration (10^-7 M)) was “promotes glucose uptake more effectively than inosine”.

Take `Nc1ncnc2c1ncn2[C@@H]1O[C@H](CO)[C@@H](O)[C@H]1O` [adenosine]: the “action of promoting epidermal keratinocytic glucose uptake (qualitative)” value is on record as “have the action of promoting epidermal keratinocytic glucose uptake”.

For `OC[C@H]1O[C@@H](n2cnc3c(O)ncnc32)[C@H](O)[C@@H]1O` [inosine], the “action of promoting epidermal keratinocytic glucose uptake (qualitative)” value is “have the action of promoting epidermal keratinocytic glucose uptake”.
